Measurements as given in ChEMBL document CHEMBL5316344, “Homologation of the Alkyl Side Chain of Antimitotic Phenyl 4-(2-Oxo-3-alkylimidazolidin-1-yl)benzenesulfonate Prodrugs Selectively Targeting CYP1A1-Expressing Breast Cancers Improves Their Stability in Rodent Liver Microsomes” (J Med Chem, 2023).
Values belong to the molecule of their own block, whether it stands above or below them.

Legend:
HT-29 = assay: Antiproliferative activity against human HT-29 cells assessed as cell growth inhibition incubated for 48 hrs by sulforhodamine B assay; format: functional, cell-based; details: HT-29, 48 h
M21 = assay: Antiproliferative activity against human M21 cells assessed as cell growth inhibition incubated for 48 hrs by sulforhodamine B assay; format: functional, cell-based; details: M21, 48 h
MCF7 = assay: Antiproliferative activity against human MCF7 cells expressing CYP1A1 assessed as cell growth inhibition incubated for 48 hrs by sulforhodamine B assay; format: functional, cell-based; details: MCF7, 48 h
[1] = Selectivity ratio, ratio of IC50 for antiproliferative activity against human HT-29 cells to IC50 for antiproliferative activity against human MCF7 cells expressing CYP1A1; format: functional
[2] = Selectivity ratio, ratio of IC50 for antiproliferative activity against human M21 cells to IC50 for antiproliferative activity against human MCF7 cells expressing CYP1A1; format: functional
[3] = Stability in mouse liver microsomes assessed as half life incubated for 60 mins by HPLC analysis; format: ADME, Microsome
[4] = Stability in mouse liver microsomes assessed as intrinsic clearance incubated for 60 mins by HPLC analysis; format: ADME, Microsome; details: read-out: CLH
[5] = Stability in human liver microsomes assessed as intrinsic clearance incubated for 60 mins by HPLC analysis; format: ADME, Microsome; details: read-out: CLH
[6] = Stability in rat liver microsomes assessed as half life incubated for 60 mins by HPLC analysis; format: ADME, Microsome
[7] = Stability in human liver microsomes assessed as half life incubated for 60 mins by HPLC analysis; format: ADME, Microsome
[8] = Stability in rat liver microsomes assessed as intrinsic clearance incubated for 60 mins by HPLC analysis; format: ADME, Microsome; details: read-out: CLH

- IC50 (HT-29): > 1.25 µM
- IC50 (MCF7): > 1.25 µM
SMILES: CCCCCCCCN1CCN(c2ccc(S(=O)(=O)Oc3ccc(F)c(F)c3)cc2)C1=O
- IC50 (M21): > 1.25 µM

- IC50 (HT-29): > 12.5 µM
- IC50 (MCF7): 1.2 µM
SMILES: CCCCCN1CCN(c2ccc(S(=O)(=O)Oc3cccc(F)c3)cc2)C1=O
- Ratio IC50 [1]: >10
- IC50 (M21): > 12.5 µM
- Ratio IC50 [2]: >10

- IC50 (HT-29): > 1.25 µM
- IC50 (MCF7): > 1.25 µM
SMILES: CCCCCCN1CCN(c2ccc(S(=O)(=O)Oc3cccc(Br)c3)cc2)C1=O
- IC50 (M21): > 1.25 µM

- IC50 (HT-29): > 1.25 µM
- IC50 (MCF7): > 1.25 µM
SMILES: CCCCCCCCN1CCN(c2ccc(S(=O)(=O)Oc3cc(Br)cc(Br)c3)cc2)C1=O
- IC50 (M21): > 1.25 µM

- IC50 (HT-29): > 1.25 µM
- IC50 (MCF7): 0.25 µM
SMILES: CCCCCCN1CCN(c2ccc(S(=O)(=O)Oc3cc(Cl)cc(Cl)c3)cc2)C1=O
- Ratio IC50 [1]: >5
- IC50 (M21): > 1.25 µM
- Ratio IC50 [2]: >5

- IC50 (HT-29): > 2.5 µM
- IC50 (MCF7): 1.8 µM
SMILES: CCCCCCN1CCN(c2ccc(S(=O)(=O)Oc3cccc(Cl)c3)cc2)C1=O
- Ratio IC50 [1]: >1.4
- IC50 (M21): > 2.5 µM
- Ratio IC50 [2]: >1.4

- IC50 (HT-29): > 25 µM
- IC50 (MCF7): > 25 µM
SMILES: CCCCCN1CCN(c2ccc(S(=O)(=O)Oc3ccccc3)cc2)C1=O
- IC50 (M21): > 25 µM

- IC50 (HT-29): > 12.5 µM
- IC50 (MCF7): > 12.5 µM
SMILES: CCCCCN1CCN(c2ccc(S(=O)(=O)Oc3ccc(OC)cc3)cc2)C1=O
- IC50 (M21): > 12.5 µM

- IC50 (HT-29): > 2.5 µM
- IC50 (MCF7): > 2.5 µM
SMILES: CCCCCCN1CCN(c2ccc(S(=O)(=O)Oc3ccccc3OC)cc2)C1=O
- IC50 (M21): > 2.5 µM

- IC50 (HT-29): > 12.5 µM
- IC50 (MCF7): > 12.5 µM
SMILES: CCCCCN1CCN(c2ccc(S(=O)(=O)Oc3ccccc3OC)cc2)C1=O
- IC50 (M21): > 12.5 µM

- IC50 (HT-29): > 1.25 µM
- IC50 (MCF7): > 1.25 µM
SMILES: CCCCCCN1CCN(c2ccc(S(=O)(=O)Oc3ccc(OC)c(OC)c3)cc2)C1=O
- IC50 (M21): > 1.25 µM

- IC50 (HT-29): > 12.5 µM
- IC50 (MCF7): 1 µM
SMILES: CCCCCN1CCN(c2ccc(S(=O)(=O)Oc3cc(F)cc(F)c3)cc2)C1=O
- Ratio IC50 [1]: >13
- IC50 (M21): > 12.5 µM
- Ratio IC50 [2]: >13

- IC50 (HT-29): > 2.5 µM
- IC50 (MCF7): > 2.5 µM
SMILES: CCCCCCN1CCN(c2ccc(S(=O)(=O)Oc3cccc(OC)c3)cc2)C1=O
- IC50 (M21): > 2.5 µM

- IC50 (HT-29): > 1.25 µM
- IC50 (MCF7): > 1.25 µM
SMILES: CCCCCCCCN1CCN(c2ccc(S(=O)(=O)Oc3ccc(OC)cc3)cc2)C1=O
- IC50 (M21): > 1.25 µM

- IC50 (HT-29): > 12.5 µM
- IC50 (MCF7): 0.26 µM
SMILES: CCCCCN1CCN(c2ccc(S(=O)(=O)Oc3cccc(OC)c3)cc2)C1=O
- Ratio IC50 [1]: >48
- IC50 (M21): > 12.5 µM
- Ratio IC50 [2]: >48

- IC50 (HT-29): > 2.5 µM
- IC50 (MCF7): > 2.5 µM
SMILES: CCCCCCCCN1CCN(c2ccc(S(=O)(=O)Oc3cccc(OC)c3)cc2)C1=O
- IC50 (M21): > 2.5 µM

- IC50 (HT-29): > 1.25 µM
- IC50 (MCF7): > 1.25 µM
SMILES: CCCCCCCCN1CCN(c2ccc(S(=O)(=O)Oc3cccc(F)c3)cc2)C1=O
- IC50 (M21): > 1.25 µM

- IC50 (HT-29): > 1.25 µM
- IC50 (MCF7): 0.12 µM
SMILES: CCCCCCN1CCN(c2ccc(S(=O)(=O)Oc3cc(Br)cc(Br)c3)cc2)C1=O
- Ratio IC50 [1]: >10
- IC50 (M21): 0.73 µM
- Ratio IC50 [2]: 6.1

More lines, now with the values behind:

SMILES: CCCCCCN1CCN(c2ccc(S(=O)(=O)Oc3ccc(F)c(F)c3)cc2)C1=O
- IC50 (HT-29): > 2.5 µM
- IC50 (M21): > 2.5 µM
- IC50 (MCF7): > 2.5 µM

SMILES: CCCCCCCCN1CCN(c2ccc(S(=O)(=O)Oc3ccccc3)cc2)C1=O
- IC50 (HT-29): > 1.25 µM
- IC50 (M21): > 1.25 µM
- IC50 (MCF7): > 1.25 µM

SMILES: CCCCCCCCN1CCN(c2ccc(S(=O)(=O)Oc3cc(OC)cc(OC)c3)cc2)C1=O
- IC50 (HT-29): > 2.5 µM
- IC50 (M21): > 2.5 µM
- IC50 (MCF7): > 2.5 µM

SMILES: CCCCN1CCN(c2ccc(S(=O)(=O)Oc3cccc(I)c3)cc2)C1=O
- half-life [3]: 12.3 min
- microsomal CLint [4]: 109 µL/min/mg
- microsomal CLint [5]: 14 µL/min/mg
- half-life [6]: 12.7 min
- half-life [7]: 100 min
- microsomal CLint [8]: 109 µL/min/mg

SMILES: CCCCCCN1CCN(c2ccc(S(=O)(=O)Oc3cccc(I)c3)cc2)C1=O
- IC50 (HT-29): > 1.25 µM
- Ratio IC50 [1]: >1.1
- IC50 (M21): > 1.25 µM
- IC50 (MCF7): 1.1 µM
- Ratio IC50 [2]: >1.1

SMILES: CCCN1CCN(c2ccc(S(=O)(=O)Oc3cc(OC)c(OC)c(OO)c3)cc2)C1=O
- half-life [3]: 8 min
- microsomal CLint [4]: 174 µL/min/mg
- microsomal CLint [5]: 13 µL/min/mg
- half-life [6]: 71 min
- half-life [7]: 109 min
- microsomal CLint [8]: 19.5 µL/min/mg

SMILES: CCCCCCN1CCN(c2ccc(S(=O)(=O)Oc3cc(OC)cc(OC)c3)cc2)C1=O
- IC50 (HT-29): > 1.25 µM
- IC50 (M21): > 1.25 µM
- IC50 (MCF7): > 1.25 µM

SMILES: CCCCCCCCN1CCN(c2ccc(S(=O)(=O)Oc3cc(F)cc(F)c3)cc2)C1=O
- IC50 (HT-29): > 1.25 µM
- IC50 (M21): > 1.25 µM
- IC50 (MCF7): > 1.25 µM

SMILES: CCCCCCCCN1CCN(c2ccc(S(=O)(=O)Oc3cc(Cl)cc(Cl)c3)cc2)C1=O
- IC50 (HT-29): > 1.25 µM
- IC50 (M21): > 1.25 µM
- IC50 (MCF7): > 1.25 µM

SMILES: CCCCCCCCN1CCN(c2ccc(S(=O)(=O)Oc3cccc(I)c3)cc2)C1=O
- IC50 (HT-29): > 1.25 µM
- IC50 (M21): > 1.25 µM
- IC50 (MCF7): > 1.25 µM

SMILES: CCCCN1CCN(c2ccc(S(=O)(=O)Oc3cccc(Cl)c3)cc2)C1=O
- half-life [3]: 13.3 min
- microsomal CLint [4]: 104 µL/min/mg
- microsomal CLint [5]: 11 µL/min/mg
- half-life [6]: 22 min
- half-life [7]: 126 min
- microsomal CLint [8]: 65 µL/min/mg

SMILES: CCCCCCCCN1CCN(c2ccc(S(=O)(=O)Oc3cc(OC)c(OC)c(OC)c3)cc2)C1=O
- IC50 (HT-29): > 1.25 µM
- IC50 (M21): > 1.25 µM
- IC50 (MCF7): > 1.25 µM

SMILES: CCCCCN1CCN(c2ccc(S(=O)(=O)Oc3ccc(OC)c(OC)c3)cc2)C1=O
- IC50 (HT-29): > 12.5 µM
- Ratio IC50 [1]: >18
- IC50 (M21): 0.5 µM
- IC50 (MCF7): 0.7 µM
- Ratio IC50 [2]: >18

SMILES: CCCCCCN1CCN(c2ccc(S(=O)(=O)Oc3ccc(OC)cc3)cc2)C1=O
- IC50 (HT-29): > 1.25 µM
- IC50 (M21): > 1.25 µM
- IC50 (MCF7): > 1.25 µM

SMILES: CCCCCCN1CCN(c2ccc(S(=O)(=O)Oc3cc(OC)c(OC)c(OC)c3)cc2)C1=O
- IC50 (HT-29): > 2.5 µM
- Ratio IC50 [1]: >18
- IC50 (M21): > 2.5 µM
- IC50 (MCF7): 0.14 µM
- Ratio IC50 [2]: >18

SMILES: CCCCCCN1CCN(c2ccc(S(=O)(=O)Oc3ccccc3)cc2)C1=O
- IC50 (HT-29): > 2.5 µM
- IC50 (M21): > 2.5 µM
- IC50 (MCF7): > 2.5 µM

SMILES: CCCCCN1CCN(c2ccc(S(=O)(=O)Oc3cccc(Br)c3)cc2)C1=O
- IC50 (HT-29): > 12.5 µM
- Ratio IC50 [1]: >42
- IC50 (M21): > 12.5 µM
- IC50 (MCF7): 0.3 µM
- Ratio IC50 [2]: >42

SMILES: CCCCCCCCN1CCN(c2ccc(S(=O)(=O)Oc3ccccc3OC)cc2)C1=O
- IC50 (HT-29): > 2.5 µM
- IC50 (M21): > 2.5 µM
- IC50 (MCF7): > 2.5 µM

SMILES: CCCCCCCCN1CCN(c2ccc(S(=O)(=O)Oc3cccc(Br)c3)cc2)C1=O
- IC50 (HT-29): > 1.25 µM
- IC50 (M21): > 1.25 µM
- IC50 (MCF7): > 1.25 µM

SMILES: CCCCCN1CCN(c2ccc(S(=O)(=O)Oc3cc(Br)cc(Br)c3)cc2)C1=O
- IC50 (HT-29): > 0.5 µM
- IC50 (M21): > 0.5 µM
- IC50 (MCF7): > 0.5 µM

SMILES: CCCCCCN1CCN(c2ccc(S(=O)(=O)Oc3cccc(F)c3)cc2)C1=O
- IC50 (HT-29): > 2.5 µM
- IC50 (M21): > 2.5 µM
- IC50 (MCF7): > 2.5 µM

SMILES: CCCCCN1CCN(c2ccc(S(=O)(=O)Oc3ccc(F)c(F)c3)cc2)C1=O
- IC50 (HT-29): > 12.5 µM
- IC50 (M21): > 12.5 µM
- IC50 (MCF7): > 12.5 µM

SMILES: CCCCCCCCN1CCN(c2ccc(S(=O)(=O)Oc3ccc(OC)c(OC)c3)cc2)C1=O
- IC50 (HT-29): > 1.25 µM
- IC50 (M21): > 1.25 µM
- IC50 (MCF7): > 1.25 µM

SMILES: CCCCCCN1CCN(c2ccc(S(=O)(=O)Oc3cc(F)cc(F)c3)cc2)C1=O
- IC50 (HT-29): > 2.5 µM
- Ratio IC50 [1]: >6.3
- IC50 (M21): > 2.5 µM
- IC50 (MCF7): 0.4 µM
- Ratio IC50 [2]: >6.3

SMILES: CCCCCCCCN1CCN(c2ccc(S(=O)(=O)Oc3cccc(Cl)c3)cc2)C1=O
- IC50 (HT-29): > 1.25 µM
- IC50 (M21): > 1.25 µM
- IC50 (MCF7): > 1.25 µM
